Test results as given in US12612412B2, “Antiviral heterocyclic compounds” (Enanta Pharmaceuticals, Inc., priority 2021, dated 2026).
pEC50: −log10 of the molar value.

What was measured:
[1] = test system: HMPV clinical isolate TN/1501/A1; assay: HMPV antiviral assay Method-B (clinical isolate TN/1501/A1 in LLC-MK2 cells, ATP-Lite readout); type: cell-based, Human metapneumovirus (HMPV); conditions: human metapneumovirus, LLC-MK2, 144 h, hMPV WT1501 (clinical isolate TN/1501/A1), 6 days
In short: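 LLC-MK2 cells infected in suspension with TN/1501/A1 at MOI 0.014 in serum-free medium with 2 μg/mL TPCK-trypsin (final), incubated 6 days at 37° C. Compounds tested in duplicate, 10-point 3-fold dilutions from 10 μM. Cell health read by ATP-Lite luminescence, normalised to virus-only and cells-only controls; EC50 by four-parameter logistic fit.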

[2] = test system: genotype A, "Long" strain RSV; assay: RSV-A assay (CPE protection in Hep-2 cells, ATPlite readout); type: cell-based, Human respiratory syncytial virus (HRSV); conditions: human respiratory syncytial virus, genotype A “Long” strain RSV, MOI 0.1, CPE protection, read-out: Human RSV-A (“Long”)
In short: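 Protection from RSV-induced cytopathic effect measured by ATP content (ATPlite) after 5-day culture. Infection used genotype A Long virus at MOI 0.1 on 8,000 Hep-2 cells per well, with compound serially diluted 2-fold; values are EC50.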

| Compound | pEC50 [1] | pEC50 [2] |
| --- | --- | --- |
| COc1cc(C(=O)NC[C@](O)(c2cc3c(c(-c4ccc(F)cc4)n2)OC[C@]3(C)C(N)=O)C2(F)CC2)cc2cc(Cl)c(C)nc12 [Example 707] | > 6.30 | > 6.70 |
| COc1cc(C(=O)NC[C@](O)(c2cc3c(c(-c4ccc(F)cc4)n2)OC[C@]3(C)C(N)=O)C2CCC2)cc2cn(C3CC3)nc12 [Example 708] | > 6.30 | > 6.70 |
| C[C@]1(C(N)=O)COc2c1cc([C@@](O)(CNC(=O)c1cc(F)c3nc(N)sc3c1)C1(F)CC1)nc2-c1ccc(F)cc1 [Example 709] | < 6.30 | > 6.70 |
| Cc1cnc2c(OC(F)F)cc(C(=O)NC[C@](O)(c3cc4c(c(-c5ccc(F)cc5)n3)OC[C@]4(C)C(N)=O)C3(F)CC3)cc2c1 [Example 710] | > 6.30 | > 6.70 |
| COc1cc(C(=O)NC[C@](O)(c2cc3c(c(-c4ccc(F)cc4)n2)OC[C@]3(C)C(N)=O)C2(F)CC2)cc2cn(C(F)F)nc12 [Example 711] | > 6.30 | > 6.70 |
| COc1cc(C(=O)NC[C@](O)(c2cc3c(c(-c4ccc5c(c4)OC(F)(F)O5)n2)OC[C@]3(C)C(N)=O)C2(F)CC2)cc2cn(C3CC3)nc12 [Example 712] | > 6.30 | > 6.70 |
| Cc1cnc2c(OC(F)F)cc(C(=O)NC[C@](O)(c3cc4c(c(-c5ccc6c(c5)OC(F)(F)O6)n3)OC[C@]4(C)C(N)=O)C3(F)CC3)cc2c1 [Example 713] | > 6.30 | > 6.70 |
| COc1cc(C(=O)NC[C@](O)(c2cc3c(c(-c4ccc(F)c(Cl)c4)n2)OC[C@]3(C)C(N)=O)C2(F)CC2)cc2cn(C3CC3)nc12 [Example 714] | > 6.30 | > 6.70 |
| Cc1cnc2c(OC(F)F)cc(C(=O)NC[C@](O)(c3cc4c(c(-c5ccc(F)c(Cl)c5)n3)OC[C@]4(C)C(N)=O)C3(F)CC3)cc2c1 [Example 715] | > 6.30 | > 6.70 |
| COc1cc(C(=O)NC[C@](O)(c2cc3c(c(-c4ccc5c(c4)OC(F)(F)O5)n2)OC[C@]3(C)C(N)=O)C2(F)CC2)cc2cc(C3CC3)nn12 [Example 716] | > 6.30 | > 6.70 |
| COc1cc(C(=O)NC[C@](O)(c2cc3c(c(-c4ccc5c(c4)OC(F)(F)O5)n2)OC[C@]3(C)C(N)=O)C2(F)CC2)cc2cc(Cl)c(C)nc12 [Example 717] | > 6.30 | > 6.70 |
| COc1cc(C(=O)NC[C@](O)(c2cc3c(c(-c4ccc(F)c(Cl)c4)n2)OC[C@]3(C)C(N)=O)C2(F)CC2)cc2cc(C3CC3)nn12 [Example 718] | < 6.30 | > 6.70 |
| COc1cc(C(=O)NC[C@](O)(c2cc3c(c(-c4ccc(F)c(Cl)c4)n2)OC[C@]3(C)C(N)=O)C2(F)CC2)cc2cc(Cl)c(C)nc12 [Example 719] | > 6.30 | > 6.70 |
| COc1cc(C(=O)NC[C@](O)(c2cc3c(c(-c4ccc5c(c4)OC(F)(F)O5)n2)OC[C@]3(C)C(N)=O)C2(F)CC2)cc2cn(C(F)F)nc12 [Example 720] | > 6.30 | > 6.70 |
| COc1cc(C(=O)NC[C@](O)(c2cc3c(c(-c4ccc(F)c(Cl)c4)n2)OC[C@]3(C)C(N)=O)C2(F)CC2)cc2cn(C(F)F)nc12 [Example 721] | < 6.30 | > 6.70 |
| COc1cc(C(=O)NC[C@](O)(c2cc3c(c(-c4ccc(F)c(Cl)c4)n2)OC[C@]3(C)C(N)=O)C2CC2)cc2sc(C)nc12 [Example 722] | > 6.30 | > 6.70 |
| COc1cc(C(=O)NC[C@](O)(c2cc3c(c(-c4ccc(F)c(Cl)c4)n2)OC[C@]3(C)C(N)=O)C2(F)CC2)cc2sc(C)nc12 [Example 723] | > 6.30 | > 6.70 |
| COc1cc(C(=O)NC[C@](O)(c2cc3c(c(-c4ccc(F)cc4)n2)OC[C@]3(C)C(N)=O)C2(F)CC2)cc2sc(C)nc12 [Example 724] | > 6.30 | > 6.70 |
| COc1cc(C(=O)NC[C@](O)(c2cc3c(c(-c4ccc5c(c4)OC(F)(F)O5)n2)OC[C@]3(C)C(N)=O)C2(F)CC2)cc2cn(C3(F)CC3)nc12 [Example 725] | > 6.30 | > 6.70 |
| COc1cc(C(=O)NC[C@](O)(c2cc3c(c(-c4ccc(F)cc4)n2)OC[C@]3(C)C(N)=O)C2CCC2)cc2cn(C3(F)CC3)nc12 [Example 726] | > 6.30 | > 6.70 |
| COc1cc(C(=O)NC[C@](O)(c2cc3c(c(-c4ccc5c(c4)OC(F)(F)O5)n2)OC[C@]3(C)C(N)=O)C2(F)CC2)cc2sc(C)nc12 [Example 727] | > 6.30 | > 6.70 |
| COc1cc(C(=O)NC[C@](O)(c2cc3c(c(-c4ccc(F)cc4)n2)OC[C@]3(C)C(N)=O)C2CC2)cc2sc(C)nc12 [Example 728] | > 6.30 | > 6.70 |
| COc1cc(C(=O)NC[C@](O)(c2cc3c(c(-c4ccc(F)c(F)c4F)n2)OC[C@]3(C)C(N)=O)C2(F)CC2)cc2cn(C3CC3)nc12 [Example 729] | > 6.30 | > 6.70 |

| Compound | pEC50 [1] | pEC50 [2] |
| --- | --- | --- |
| Cc1cnc2c(OC(F)F)cc(C(=O)NC[C@](O)(c3cc4c(c(-c5ccc(F)c(F)c5F)n3)OC[C@]4(C)C(N)=O)C3(F)CC3)cc2c1 [Example 730] | > 6.30 | > 6.70 |
| COc1cc(C(=O)NC[C@](O)(c2cc3c(c(-c4ccc(F)c(F)c4F)n2)OC[C@]3(C)C(N)=O)C2(F)CC2)cc2cc(Cl)c(C)nc12 [Example 731] | > 6.30 | > 6.70 |
| COc1cc(C(=O)NC[C@](O)(c2cc3c(c(-c4ccc(F)cc4Cl)n2)OC[C@]3(C)C(N)=O)C2(F)CC2)cc2cn(C3CC3)nc12 [Example 732] | > 6.30 | > 6.70 |
| Cc1cnc2c(OC(F)F)cc(C(=O)NC[C@](O)(c3cc4c(c(-c5ccc(F)cc5Cl)n3)OC[C@]4(C)C(N)=O)C3(F)CC3)cc2c1 [Example 733] | > 6.30 | > 6.70 |
| COc1cc(C(=O)NC[C@](O)(c2cc3c(c(-c4ccc(F)cc4Cl)n2)OC[C@]3(C)C(N)=O)C2(F)CC2)cc2cc(Cl)c(C)nc12 [Example 734] | > 6.30 | > 6.70 |
| COc1cc(C(=O)NC[C@](O)(c2cc3c(c(-c4cc(Cl)ccc4F)n2)OC[C@]3(C)C(N)=O)C2(F)CC2)cc2cn(C3CC3)nc12 [Example 735] | > 6.30 | > 6.70 |
| Cc1cnc2c(OC(F)F)cc(C(=O)NC[C@](O)(c3cc4c(c(-c5cc(Cl)ccc5F)n3)OC[C@]4(C)C(N)=O)C3(F)CC3)cc2c1 [Example 736] | > 6.30 | > 6.70 |
| COc1cc(C(=O)NC[C@](O)(c2cc3c(c(-c4cc(Cl)ccc4F)n2)OC[C@]3(C)C(N)=O)C2(F)CC2)cc2cc(Cl)c(C)nc12 [Example 737] | > 6.30 | > 6.70 |
| Cc1cnc2c(Cl)cc(C(=O)NC[C@](O)(c3cc4c(c(-c5ccc(F)cc5)n3)OC[C@]4(C)C(N)=O)C3(F)CC3)cc2c1 [Example 738] | > 6.30 | > 6.70 |
| Cc1nc2c(OC3CC3)cc(C(=O)NC[C@](O)(c3cc4c(c(-c5ccc(F)cc5)n3)OC[C@]4(C)C(N)=O)C3(F)CC3)cc2cc1Cl [Example 739] | > 6.30 | > 6.70 |
| Cc1cnc2c(Cl)cc(C(=O)NC[C@](O)(c3cc4c(c(-c5ccc(F)cc5)n3)OC[C@]4(C)C(N)=O)C3CC3)cc2c1 [Example 740] | > 6.30 | > 6.70 |
| COc1cc(C(=O)NC[C@](O)(c2cc3c(c(-c4ccc(F)cc4)n2)OC[C@]3(C)C(N)=O)C2CC2)cc2sc(C3CC3)nc12 [Example 741] | > 6.30 | > 6.70 |
| COc1cc(C(=O)NC[C@](O)(c2cc3c(c(-c4ccc(F)cc4)n2)OC[C@]3(C)C(N)=O)C2(F)CC2)cc2sc(C3CC3)nc12 [Example 742] | > 6.30 | > 6.70 |
| COc1cc(C(=O)NC[C@](O)(c2cc3c(c(-c4ccc(F)c(F)c4F)n2)OC[C@]3(C)C(N)=O)C2(F)CC2)cc2cn(C3(F)CC3)nc12 [Example 743] | > 6.30 | > 6.70 |
| COc1cc(C(=O)NC[C@](O)(c2cc3c(c(-c4ccc(F)c(F)c4F)n2)OC[C@]3(C)C(N)=O)C2(F)CC2)cc2cn(C(F)F)nc12 [Example 744] | > 6.30 | > 6.70 |
| COc1cc(C(=O)NC[C@](O)(c2cc3c(c(-c4ccc(F)c(F)c4Cl)n2)OC[C@]3(C)C(N)=O)C2(F)CC2)cc2cn(C3CC3)nc12 [Example 745] | > 6.30 | > 6.70 |
| Cc1cnc2c(OC(F)F)cc(C(=O)NC[C@](O)(c3cc4c(c(-c5ccc(F)c(F)c5Cl)n3)OC[C@]4(C)C(N)=O)C3(F)CC3)cc2c1 [Example 746] | > 6.30 | > 6.70 |
| COc1cc(C(=O)NC[C@](O)(c2cc3c(c(-c4ccc(F)c(F)c4Cl)n2)OC[C@]3(C)C(N)=O)C2(F)CC2)cc2cc(Cl)c(C)nc12 [Example 747] | > 6.30 | > 6.70 |
| COc1cc(C(=O)NC[C@](O)(c2cc3c(c(-c4ccc(F)c(F)c4Cl)n2)OC[C@]3(C)C(N)=O)C2(F)CC2)cc2cn(C(F)F)nc12 [Example 748] | > 6.30 | > 6.70 |
| COc1cc(C(=O)NC[C@](O)(c2cc3c(c(-c4ccc(F)c(C(F)(F)F)c4)n2)OC[C@]3(C)C(N)=O)C2(F)CC2)cc2cn(C3CC3)nc12 [Example 749] | > 6.30 | > 6.70 |
| Cc1cnc2c(OC(F)F)cc(C(=O)NC[C@](O)(c3cc4c(c(-c5ccc(F)c(C(F)(F)F)c5)n3)OC[C@]4(C)C(N)=O)C3(F)CC3)cc2c1 [Example 750] | > 6.30 | > 6.70 |
| COc1cc(C(=O)NC[C@](O)(c2cc3c(c(-c4ccc(F)c(C(F)(F)F)c4)n2)OC[C@]3(C)C(N)=O)C2(F)CC2)cc2cn(C(F)F)nc12 [Example 751] | > 6.30 | > 6.70 |
